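Interpolation was linear, between the two tested concentrations surrounding the appropriate level; five concentrations were tested over 48 hours in 96-well plates. GI50 = concentration required for 50% inhibition of growth.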 The source made the active and inactive calls. Rule as the data show it: active = GI50 up to about 1.1 µM and inactive = higher.
Columns and labels:
Assay in all cases: DTP human tumour cell line panel, 48 h
MOLT-4 = tested on: MOLT-4
U-251 = tested on: U-251
MDA-N = tested on: MDA-N
KM12 = tested on: KM12
RPMI-8226 = tested on: RPMI-8226
OVCAR-8 = tested on: OVCAR-8
SK-OV-3 = tested on: SK-OV-3
SK-MEL-2 = tested on: SK-MEL-2
LOX IMVI = tested on: LOX IMVI
HOP-92 = tested on: HOP-92
NCI/ADR-RES = tested on: NCI/ADR-RES
HCT-15 = tested on: HCT-15
UACC-62 = tested on: UACC-62
786-0 = tested on: 786-0
TK-10 = tested on: TK-10
UACC-257 = tested on: UACC-257
PC-3 = tested on: PC-3
SF-295 = tested on: SF-295
HCT-116 = tested on: HCT-116
ACHN = tested on: ACHN
MDA-MB-435 = tested on: MDA-MB-435
SN12C = tested on: SN12C
OVCAR-3 = tested on: OVCAR-3
OVCAR-5 = tested on: OVCAR-5
HCC 2998 = tested on: HCC 2998
M14 = tested on: M14
NCI-H522 = tested on: NCI-H522
SK-MEL-28 = tested on: SK-MEL-28
UO-31 = tested on: UO-31
COLO 205 = tested on: COLO 205
A498 = tested on: A498
SNB-19 = tested on: SNB-19
OVCAR-4 = tested on: OVCAR-4
RXF 393 = tested on: RXF 393
CCRF-CEM = tested on: CCRF-CEM
IGROV-1 = tested on: IGROV-1
EKVX = tested on: EKVX
SW-620 = tested on: SW-620
SNB-75 = tested on: SNB-75
Malme-3M = tested on: Malme-3M
NCI-H23 = tested on: NCI-H23
MDA-MB-231 = tested on: MDA-MB-231
MCF7 = tested on: MCF7
CAKI-1 = tested on: CAKI-1
NCI-H226 = tested on: NCI-H226
DU-145 = tested on: DU-145
T47D = tested on: T47D
HT-29 = tested on: HT-29
SK-MEL-5 = tested on: SK-MEL-5
SF-539 = tested on: SF-539
HOP-62 = tested on: HOP-62
A549 = tested on: A549
K562 = tested on: K562
HL-60 = tested on: HL-60
SR = tested on: SR
SF-268 = tested on: SF-268
NCI-H460 = tested on: NCI-H460

O=C(NNCc1ccccc1O)c1ccccc1O
GI50 (MOLT-4): 1.75 µM (inactive) | GI50 (U-251): 5.75 µM (inactive) | GI50 (MDA-N): 7.57 µM (inactive) | GI50 (KM12): 8.91 µM (inactive) | GI50 (RPMI-8226): 3.27 µM (inactive) | GI50 (OVCAR-8): 14.4 µM (inactive) | GI50 (SK-OV-3): 7.71 µM (inactive) | GI50 (SK-MEL-2): 4.65 µM (inactive) | GI50 (LOX IMVI): 3.09 µM (inactive) | GI50 (HOP-92): 33 µM (inactive) | GI50 (NCI/ADR-RES): 8.85 µM (inactive) | GI50 (HCT-15): 1.19 µM | GI50 (UACC-62): 5.42 µM (inactive) | GI50 (786-0): 11 µM (inactive) | GI50 (TK-10): 31.4 µM (inactive) | GI50 (UACC-257): 29.2 µM (inactive) | GI50 (PC-3): 24.9 µM (inactive) | GI50 (SF-295): 2.51 µM (inactive) | GI50 (HCT-116): 3.1 µM (inactive) | GI50 (ACHN): 5.12 µM (inactive) | GI50 (MDA-MB-435): 3.06 µM (inactive) | GI50 (SN12C): 4.03 µM (inactive) | GI50 (OVCAR-3): 0.766 µM (active) | GI50 (OVCAR-5): 3.59 µM (inactive) | GI50 (HCC 2998): 4.01 µM (inactive) | GI50 (M14): 9.16 µM (inactive) | GI50 (NCI-H522): 2.28 µM (inactive) | GI50 (SK-MEL-28): 8.41 µM (inactive) | GI50 (UO-31): 1.92 µM (inactive) | GI50 (COLO 205): 7.93 µM (inactive) | GI50 (A498): 31.4 µM (inactive) | GI50 (SNB-19): 36.6 µM (inactive) | GI50 (OVCAR-4): 26 µM (inactive) | GI50 (RXF 393): 25.2 µM (inactive) | GI50 (CCRF-CEM): 0.735 µM (active) | GI50 (IGROV-1): 1.13 µM (inactive) | GI50 (EKVX): 5.89 µM (inactive) | GI50 (SW-620): 3.48 µM (inactive) | GI50 (SNB-75): 21.9 µM (inactive) | GI50 (Malme-3M): 15.1 µM (inactive) | GI50 (NCI-H23): 9.84 µM (inactive) | GI50 (MDA-MB-231): > 100 µM (inactive) | GI50 (MCF7): 12.5 µM (inactive) | GI50 (CAKI-1): 9.55 µM (inactive) | GI50 (NCI-H226): 24 µM (inactive) | GI50 (DU-145): 3.22 µM (inactive) | GI50 (T47D): 3.48 µM (inactive) | GI50 (HT-29): 9.38 µM (inactive) | GI50 (SK-MEL-5): 3.06 µM (inactive) | GI50 (SF-539): 16.5 µM (inactive) | GI50 (HOP-62): 7.52 µM (inactive) | GI50 (A549): 8.13 µM (inactive) | GI50 (K562): 3.3 µM (inactive) | GI50 (HL-60): 0.495 µM (active)

O=S(=O)(O)CCS [MESNA]
GI50 (MOLT-4): > 100 µM (inactive) | GI50 (U-251): > 100 µM (inactive) | GI50 (SR): > 100 µM (inactive) | GI50 (MDA-N): > 100 µM (inactive) | GI50 (KM12): > 100 µM (inactive) | GI50 (OVCAR-8): > 100 µM (inactive) | GI50 (SK-OV-3): > 100 µM (inactive) | GI50 (SK-MEL-2): > 100 µM (inactive) | GI50 (LOX IMVI): > 100 µM (inactive) | GI50 (HOP-92): > 100 µM (inactive) | GI50 (NCI/ADR-RES): > 100 µM (inactive) | GI50 (HCT-15): > 100 µM | GI50 (UACC-62): > 100 µM (inactive) | GI50 (786-0): > 100 µM (inactive) | GI50 (UACC-257): > 100 µM (inactive) | GI50 (PC-3): > 100 µM (inactive) | GI50 (SF-295): > 100 µM (inactive) | GI50 (HCT-116): > 100 µM (inactive) | GI50 (ACHN): > 100 µM (inactive) | GI50 (MDA-MB-435): > 100 µM (inactive) | GI50 (SN12C): > 100 µM (inactive) | GI50 (OVCAR-3): > 100 µM (inactive) | GI50 (OVCAR-5): > 100 µM (inactive) | GI50 (HCC 2998): > 100 µM (inactive) | GI50 (M14): > 100 µM (inactive) | GI50 (NCI-H522): > 100 µM (inactive) | GI50 (SK-MEL-28): > 100 µM (inactive) | GI50 (UO-31): > 100 µM (inactive) | GI50 (COLO 205): > 100 µM (inactive) | GI50 (A498): > 100 µM (inactive) | GI50 (SNB-19): > 100 µM (inactive) | GI50 (OVCAR-4): > 100 µM (inactive) | GI50 (RXF 393): > 100 µM (inactive) | GI50 (CCRF-CEM): > 100 µM (inactive) | GI50 (IGROV-1): > 100 µM (inactive) | GI50 (SF-268): > 100 µM (inactive) | GI50 (EKVX): > 100 µM (inactive) | GI50 (SW-620): > 100 µM (inactive) | GI50 (SNB-75): 39.7 µM (inactive) | GI50 (Malme-3M): > 100 µM (inactive) | GI50 (NCI-H23): > 100 µM (inactive) | GI50 (MDA-MB-231): > 100 µM (inactive) | GI50 (MCF7): > 100 µM (inactive) | GI50 (CAKI-1): > 100 µM (inactive) | GI50 (NCI-H460): > 100 µM (inactive) | GI50 (NCI-H226): > 100 µM (inactive) | GI50 (DU-145): > 100 µM (inactive) | GI50 (T47D): > 100 µM (inactive) | GI50 (HT-29): > 100 µM (inactive) | GI50 (SK-MEL-5): > 100 µM (inactive) | GI50 (SF-539): > 100 µM (inactive) | GI50 (HOP-62): > 100 µM (inactive) | GI50 (A549): > 100 µM (inactive) | GI50 (K562): > 100 µM (inactive)

Reference: ChEMBL document CHEMBL1201862, “PubChem BioAssay data set” (2004)
